From patent publication US20020039601A1, “Cancer cell growth suppressor and cell differentiation inducer and method for manufacturing the same” (priority 2000, published 2002)

How the values were obtained:
HL-60 cells [1] = conditions: HL60 cells, cited from earlier work
[2] = tested on: carcinoma strain of the colon (Colo201 cells); test: CD-DST cancer cell growth suppression test, Colo201; format: cell-based, human; conditions: 67.6 μg of capsanthin (FIG. 6)
Text: Employing a drug sensitivity test method (CD-DST method), Toma-pi water-soluble component condensed liquid of different concentrations was examined for growth suppressing effect at the contact time set at seven days.
The CD-DST method herein referred to is a well-known experiment method called a collagen gel drop method, and its steps are shown in FIG. 1. Its details are also described in “Establishment of Collagen Gel Droplet Embedded Culture Drug Sensitivity Test (CD-DST) and consideration about its clinical utility” in “Cancer and Chemical Treatment” (published in 1995, vol.22, 1933-1939 pages).
As a method of cultivating cancer cells, a human cancer cell first generation cultivation system kit (Plymaster made by Nitta Gelatine Co.), was used and cells were cultivated according to a normal method (reference document J. Jpn. Soc. Cancer Ther. 29(7):946-956, 1994).
The growth suppressing effect was judged in terms of suppressing percentage (T/C%) which is the ratio of a treated group to an untreated group (control group). Units μg and mg shown in FIGS. 2-7 show the concentrations of Toma-pi water-soluble components in terms of the weight of Toma-pi powder (dried powder of Capsicum Annuum L.Var.grossumn) used as raw material for water extracting. It is hereinbelow referred to as “converted concentration of Toma-pi water-soluble components”.

HL-60 cells [3] = test: Human leukemia differentiation inducing test (NBT reducing ability); format: cell-based; conditions: HL60 cells
Protocol: The differentiation inducing test using HL-60 cells, which are leukemia cells, was performed according to “New Cultured Cell Experiment Method” (written by Toshio Kuroki, on pages 286-289, published by Yodosha), “Jpn. J-Cancer” (Res. 81, 807-812, August 1990), and “Clinical Test Method” written by Izumi Kamei, page 358, published by Kinbara Shuppan) to examine the differentiation inducing ability with the NBT reducing ability as an index.
It is known that for HL60 cells, differentiation is induced by retinoic acid, DMSO or active type vitamin D3. Active type vitamin D3 (medicine for external use, treatment of psoriasis) and all-trans retinoic acid (ATRA) are used as oral medicine for treating leukemia. When leukemia cells differentiate, azurophile granules in the cells reduce. If they differentiate into granulocyte, cell nucleus segment. […] As a convenient marker for differentiation induction of leukemia cells, one method is to measure nitro blune tetrazolium (NBT) reducing ability.
The NBT test uses the fact that when promyelocytic leukemia cells such as HL60 differentiate into monocyte/macrophage, production of active oxygen increases. That is to say, formation of insoluble formozan produced when NBT is reduced due to oxidation/reduction reaction by the active oxygen is used as a marker of differentiation. Active vitamin D3 has a differentiating ability at 10^−9 to 10^−6 M, ATRA at 10^−8 to 10^−6 M, and DMSO at 1.2 to 1.3%. At the respective maximum concentrations, they can differentiate by about 90% or over. Judging by the NBT reducing ability, the results were examined.

## CC1=C(/C=C/C(C)=C/C=C/C(C)=C/C(=O)O)C(C)(C)CCC1 [ATRA, all-trans retinoic acid]
HL-60 cells [1]
  concentration having differentiating ability: 10^−8 to 10^−6 M

## C[S+](C)[O-] [DMSO]
HL-60 cells [1]
  concentration having differentiating ability: 1.2 to 1.3%

## CC1=C(/C=C/C(C)=C/C=C/C(C)=C/C=C/C=C(C)/C=C/C=C(C)/C=C/C(=O)[C@]2(C)C[C@@H](O)CC2(C)C)C(C)(C)C[C@H](O)C1 [capsanthin]
[2]
  growth suppression: 24%
HL-60 cells [3]; capsanthin 200 μg with active type vitamin D3 (FIG. 9)
  active type vitamin D3 concentration from which differentiation was promoted in combination: ≥ 75 pM
HL-60 cells [3]; capsanthin 400 μg with active type vitamin D3 (FIG. 9)
  active type vitamin D3 concentration at which differentiation was promoted in combination: 10^−11 M

## active type vitamin D3
HL-60 cells [1]; 10^−10 M, alone
  differentiating ability: does not ordinarily show any differentiating ability
HL-60 cells [1]
  concentration having differentiating ability: 10^−9 to 10^−6 M
HL-60 cells [3]; 10^−9 M
  NBT reducing rate: about 5%
